The test system of experiment [1] is Human gastric cancer cell line MKN-45. Put plainly: Human gastric cancer cell line MKN-45 growth inhibitory test. The following applies: MKN-45, 72 h, culture for 3 days. In kind it is cell-based. As to the method:
Human gastric cancer cell line MKN-45 (RIKEN BioResource Center) was cultured in RPMI1640 (Invitrogen) containing 10% bovine fetal serum in a gas incubator at 37° C., 5% CO2. MKN-45 cells were treated with trypsin/EDTA and recovered. The cells were suspended in RPMI1640 containing 0.3% bovine fetal serum, plated on a 96 well flat bottom plate at a cells density of 3000 cells/50 μL per well. After culturing overnight, various concentrations of test substance were dissolved in RPMI1640 containing 0.3% bovine fetal serum and added to each well by 50 μL. After culture for 3 days, a Cell counting kit-8 reagent (DOJINDO LABORATORIES) was added to each well by 10 μL, and reacted in an incubator at 37° C., 5% CO2 for 2-3 hr. After the reaction, the absorbance of each well at 450 nm was measured by a microtiter plate reader. The concentration of a test substance necessary for inhibiting the growth by 50% (IC50 value) was calculated using a cell proliferation rate with addition of the test substance at each concentration and according to the nonlinear regression analysis using GraphPad Prism [Sigmoidal dose response (variable slope)]. The cell proliferation rate (%) with addition of a test substance at each concentration was calculated by the following formula. As a positive control (100% growth), dimethyl sulfoxide was added instead of a test substance. As a negative control (0% growth), the compound of Reference Example 136 (WO2005/030140, Entry 104), which is a known c-Met inhibitor, was added in large excess (10 μM) instead of a test substance.

Experiment [2] addresses T1, VEGFR2 intracellular domain protein (Homo sapiens, UniProt P35968).
T1 construct: made in house; host or cells: SF-21 insect cells, recombinant baculovirus BAC-VEGFR2
Put plainly: Vascular endothelial growth factor receptor 2 (VEGFR2) kinase inhibitory activity (AlphaScreen). In kind it is biochemical. As to the method: Human vascular endothelial growth factor receptor 2 (hereinafter to be referred to as VEGFR2) gene was cloned by PCR using cDNA Libraries Human Placenta (Clontech) as a template. […] The primer base sequence is shown below.
SF-21 cells were sown at 1×10^6 cells/mL to Sf-900II SFM medium (1 L, Invitrogen) containing 10% fetal bovine serum (trace), 50 mg/L Gentamicin (Invitrogen) and 0.1% Pluronic F-68 (Invitrogen), and shaking culture was performed using a 2 L volume Erlenmeyer flask at 27° C., 100 rpm. After culturing for 24 hrs, recombinant baculovirus BAC-VEGFR2 (13.4 mL) was added to the mixture, and the mixture was further cultured for 3 days. The culture medium was centrifuged at 2,000 rpm for 5 min to give virus-infected cells. The infected cells were washed with a phosphate buffered saline (Invitrogen), centrifuged under the same conditions, and the cells were preserved at −80° C. The cryopreserved cells were thawed in ice, suspended in buffer A (50 mM Tris buffer (30 mL, pH 7.4) containing 20% glycerol, 0.15 M NaCl) supplemented with Complete Protease Inhibitor (Boehringer), and ruptured 3 times with a Polytron homogenizer (Kinematica) at 20,000 rpm for 30 sec. The ruptured medium was clarified by centrifugation at 40,000 rpm for 30 min and filtered with a 0.45 μm filter. The filtrate was passed through a column packed with Anti-FLAG M2 Affinity Gel (4 mL, Sigma) at a flow rate of about 0.5 mL/min. The column was washed with buffer A, and eluted with buffer A containing 100 μg/mL of FLAG peptide. The eluate was concentrated with Vivaspin 20 (Vivascience) having a molecular weight cut off of 30K. The buffer of this concentrate was exchanged using NAP™ 25 column (Amersham Bioscience) equilibrated with buffer A. The fractions containing intracellular domain protein of VEGFR2 were collected, glycerol was added to the final concentration of 50% and cryopreserved at −80° C.
(§1) A test compound dissolved in dimethyl sulfoxide (DMSO) was diluted with a buffer (50 mM Tris-HCl (pH 7.5), 5 mM MgCl2, 5 mM MnCl2, 2 mM dithiothreitol, 0.01% Tween-20). To this compound solution (5 μL) was added a buffer (10 μL) containing 50 ng/mL of VEGFR2 intracellular domain protein and 250 ng/mL of biotin labeled polypeptide biotinyl-poly-Glu:Tyr (4:1) (CIS bio International). […] The reaction solution was allowed to stand at 25° C. for 16 hrs, and the wells were counted using a plate reader (Fusion™ (PerkinElmer)). The kinase inhibitory rate (%) of the test compound was calculated by the following formula: Inhibitory rate (%)=(1−(count of test compound−blank)÷(control−blank))×100
(§2) The count of the solution reacted without addition of the compound was used as a “control”, and the count of the solution without the compound and ATP was used as a “blank”.
(Alpha assays give light when donor and acceptor beads are brought close together.)

For experiment [3], the target named is T2, c-Met intracellular domain protein (Homo sapiens, UniProt P08581).
T2 construct: 2.5 ng/ml of c-Met intracellular domain protein (Millipore); purchased Millipore
Put plainly: Hepatocyte growth factor receptor (c-Met) kinase inhibitory activity (AlphaScreen). The experiment is classed as biochemical. As to the method: as §1, with “containing 2.5 ng/ml” for “containing 50 ng/mL”, “of c-Met” for “of VEGFR2”, “protein (Millipore)” for “protein”
as §2

Experiment [4] deals with Human umbilical vein-derived vascular endothelial cells (HUVEC). Description: Vascular endothelial cell proliferation inhibitory test (VEGF-stimulated HUVEC). The experiment is classed as cell-based. The following applies: 120 h, 5 days of culture with VEGF. The procedure: Human umbilical vein-derived vascular endothelial cells (HUVEC purchased from KURABO […] LTD.) were cultured in an incubator at 37° C., 5% carbon dioxide in a vascular endothelial cell medium (Invitrogen) containing 3% bovine fetal serum and 2.5 ng/mL basic fibroblast growth factor. To be specific, HUVEC was suspended in a vascular endothelial cell medium containing the aforementioned 3% bovine fetal serum and plated on a 96 well flat bottom plate by 50 μL (3000 cells) each well. After culture overnight, various concentrations of the test substance and 120 ng/mL of vascular endothelial growth factor (VEGF) were dissolved in a vascular endothelial cell medium containing 3% bovine fetal serum and added to each well by 50 μL. After 5 days of culture, a Cell counting kit-8 reagent (DOJINDO LABORATORIES) was added to each well by 10 μL, and the mixture was reacted in an incubator at 37° C., 5% carbon dioxide for 2-3 hr. The absorbance at 450 nm was measured by a microtiter plate reader and the cell proliferation inhibitory activity was determined. Using the absorbance with addition of a test substance at each concentration and based on the nonlinear least-squares analysis using a logistic curve of SAS system NLIN procedure, the concentration of the test substance (IC50 value) necessary for showing 50% of the value obtained without addition of the test substance was calculated.

Experiment [5] relates to Human blood cell cancer cell line MV-4-11. Description: Human blood cell cancer cell line MV-4-11 growth inhibitory test. In kind it is cell-based. The following applies: MV4-11, 72 h, culture for 3 days. As to the method:
Human blood cell cancer cell line MV-4-11 (ATCC) was cultured in IMDM (Invitrogen) containing 10% bovine fetal serum in an incubator at 37° C., 5% CO2. MV-4-11 cells were treated with trypsin/EDTA and recovered. The cells were suspended in IMDM containing 10% bovine fetal serum, plated on a 96 well flat bottom plate at a cells density of 30,000 cells/50 μL per well. After culturing overnight, various concentrations of test substance were dissolved in IMDM containing 10% bovine fetal serum and added to each well by 50 μL. After culture for 3 days, a Cell counting kit-8 reagent (DOJINDO LABORATORIES) was added to each well by 10 μL, and reacted in an incubator at 37° C., 5% CO2 for 2-3 hr. After the reaction, the absorbance of each well at 450 nm was measured by a microtiter plate reader. The concentration of a test substance necessary for inhibiting the growth by 50% (IC50 value) was calculated using a cell proliferation rate with addition of the test substance at each concentration and according to the nonlinear regression analysis using GraphPad Prism [Sigmoidal dose response (variable slope)].

In experiment [6] the target is T3, FLT3 intracellular domain protein (Homo sapiens, UniProt P36888).
T3 construct: 7.5 ng/ml of FLT3 intracellular domain protein (Millipore); purchased Millipore
T3 sequence (P36888 564-993 limits assumed): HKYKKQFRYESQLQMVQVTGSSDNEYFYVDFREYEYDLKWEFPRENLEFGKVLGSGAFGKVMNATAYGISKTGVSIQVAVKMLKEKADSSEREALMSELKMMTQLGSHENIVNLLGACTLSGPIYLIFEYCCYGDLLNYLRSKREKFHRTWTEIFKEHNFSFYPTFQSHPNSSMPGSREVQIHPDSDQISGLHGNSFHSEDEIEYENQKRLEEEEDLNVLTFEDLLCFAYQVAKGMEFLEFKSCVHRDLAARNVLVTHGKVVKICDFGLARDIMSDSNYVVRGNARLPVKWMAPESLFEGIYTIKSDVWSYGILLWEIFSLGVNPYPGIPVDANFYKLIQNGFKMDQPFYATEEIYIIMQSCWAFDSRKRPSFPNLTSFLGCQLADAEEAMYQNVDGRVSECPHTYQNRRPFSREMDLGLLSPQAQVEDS
Description: Fms Like Tyrosine Kinase 3 (FLT3) kinase inhibitory activity (AlphaScreen). In kind it is biochemical. The procedure:
A test compound dissolved in dimethyl sulfoxide (DMSO) was diluted with a buffer (50 mM Tris-HCl (pH 7.5), 5 mM MgCl2, 5 mM MnCl2, 2 mM dithiothreitol, 0.01% Tween-20). To this compound solution (5 μL) was added a buffer (10 μL) containing 7.5 ng/ml of FLT3 intracellular domain protein (Millipore) and 250 ng/mL of biotin labeled polypeptide biotinyl-poly-Glu:Tyr (4:1) (CIS bio International). At 5 min after mixing kinase enzyme and the compound and biotin labeled polypeptide, to the obtained mixture was added a buffer (10 μL) containing ATP (5 μM), the mixture was allowed to react at 25° C. for 10 min and the reaction was quenched with 25 μL of a stop solution (100 mM EDTA disodium salt, 62.5 mM HEPES buffer (pH 7.4), 250 mM NaCl, 0.1% bovine serum albumin, 10 μg/mL AlphaScreen assay streptavidin donor beads (Streptavidin Donor Beads: PerkinElmer), 10 μg/mL AlphaScreen assay anti-phosphotyrosine recognition antibody Y-100 binding acceptor beads (Anti-phosphotyrosine (P-Tyr-100) Acceptor beads: PerkinElmer)). The reaction solution was allowed to stand at 25° C. for 16 hrs, and the wells were counted using a plate reader (Envision™ (PerkinElmer)). The kinase inhibitory rate (%) of the test compound was calculated by the following formula: Inhibitory rate (%)=(1−(count of test compound−blank)÷(control−blank))×100
as §2

Experiment [7] has as its target T4, Tie2 intracellular domain protein (Homo sapiens, UniProt Q02763).
T4 construct: 50 ng/mL of Tie2 intracellular domain protein (Millipore); purchased Millipore
Put plainly: TIE2 kinase inhibitory activity (AlphaScreen). The experiment is classed as biochemical. As to the method: A test compound dissolved in dimethyl sulfoxide (DMSO) was diluted with a buffer (50 mM Tris-HCl (pH 7.5), 5 mM MgCl2, 5 mM MnCl2, 2 mM dithiothreitol, 0.01% Tween-20). A buffer (10 μL) containing 50 ng/mL of Tie2 intracellular domain protein (Millipore) and 250 ng/ml, of biotin labeled polypeptide biotinyl-poly-Glu:Tyr (4:1) (CIS bio International) was added to the compound solution (5 μL). At 5 min from the mixing of the kinase enzyme, the compound and the biotin labeled polypeptide, a buffer (10 μL) containing 5 μM ATP was added, and the mixture was reacted at 25° C. for 10 min. The reaction was quenched by the addition of 25 μL of a stop solution (100 mM EDTA disodium salt, 62.5 mM HEPES buffer (pH 7.4), 250 mM NaCl, 0.1% bovine serum albumin, 10 μg/ml AlphaScreen assay streptavidin donor beads (Streptavidin Donor beads: PerkinElmer), 10 μg/ml, AlphaScreen assay anti-phosphotyrosine recognition antibody PT-66 binding acceptor beads (Anti-phosphotyrosine (PT-66) Acceptor beads: PerkinElmer)). The reaction solution was allowed to stand at 25° C. for 16 hrs, and the […] were counted using a plate reader (Fusion™ (PerkinElmer)). The kinase inhibitory rate (%) of the test compound was calculated by the following formula: Inhibitory rate (%)=(1−(count of test compound−blank)÷(control−blank))×100
as §2

Where [8] appears, read: 1 μM test substance, read-out: inhibitory rate (%) at 1 μM.
Setting [9] is: 1 μM test compound, read-out: inhibitory rate (%) at 1 μM.

The structures appear in SMILES notation.

T2 sequence (P08581 956-1390 limits assumed): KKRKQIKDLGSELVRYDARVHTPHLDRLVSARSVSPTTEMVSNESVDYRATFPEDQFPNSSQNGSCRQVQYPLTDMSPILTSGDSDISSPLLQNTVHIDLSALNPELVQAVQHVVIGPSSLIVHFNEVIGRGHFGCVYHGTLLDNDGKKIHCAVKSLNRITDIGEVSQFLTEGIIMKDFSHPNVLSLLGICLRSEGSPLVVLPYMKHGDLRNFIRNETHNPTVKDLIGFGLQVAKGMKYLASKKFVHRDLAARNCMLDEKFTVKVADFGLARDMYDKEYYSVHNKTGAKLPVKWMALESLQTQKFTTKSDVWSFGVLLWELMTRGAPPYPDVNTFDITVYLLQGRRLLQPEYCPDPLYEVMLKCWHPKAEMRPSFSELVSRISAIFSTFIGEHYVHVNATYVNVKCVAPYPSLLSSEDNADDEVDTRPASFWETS
T1 sequence (P35968 786-1356 limits assumed): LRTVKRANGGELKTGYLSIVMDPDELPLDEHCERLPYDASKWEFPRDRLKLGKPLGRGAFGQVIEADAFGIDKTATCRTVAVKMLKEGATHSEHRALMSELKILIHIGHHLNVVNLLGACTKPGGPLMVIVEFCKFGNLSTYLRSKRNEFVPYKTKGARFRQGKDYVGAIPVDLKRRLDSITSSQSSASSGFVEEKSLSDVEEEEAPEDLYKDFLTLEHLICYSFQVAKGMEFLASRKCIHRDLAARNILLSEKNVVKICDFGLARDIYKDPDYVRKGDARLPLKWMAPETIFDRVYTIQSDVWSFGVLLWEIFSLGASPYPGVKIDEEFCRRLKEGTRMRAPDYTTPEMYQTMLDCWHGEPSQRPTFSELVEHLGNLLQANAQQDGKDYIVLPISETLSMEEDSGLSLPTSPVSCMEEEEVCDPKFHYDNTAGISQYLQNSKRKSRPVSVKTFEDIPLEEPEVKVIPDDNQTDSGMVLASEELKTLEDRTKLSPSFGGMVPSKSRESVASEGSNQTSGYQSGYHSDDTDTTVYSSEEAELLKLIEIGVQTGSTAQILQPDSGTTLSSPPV
T4 sequence (Q02763 770-1124 limits assumed): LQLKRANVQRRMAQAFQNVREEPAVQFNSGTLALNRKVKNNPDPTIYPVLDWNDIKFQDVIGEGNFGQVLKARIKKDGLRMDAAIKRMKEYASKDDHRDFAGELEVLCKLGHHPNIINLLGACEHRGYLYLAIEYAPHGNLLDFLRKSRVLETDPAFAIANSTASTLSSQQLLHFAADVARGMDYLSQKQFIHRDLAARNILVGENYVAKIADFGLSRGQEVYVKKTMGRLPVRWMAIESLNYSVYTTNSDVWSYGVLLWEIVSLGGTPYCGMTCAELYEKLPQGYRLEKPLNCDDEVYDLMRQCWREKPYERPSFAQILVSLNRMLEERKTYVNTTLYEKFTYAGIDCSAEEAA

As for `O=C(Nc1nc2ccc(Oc3ccc(NC(=O)C4(C(=O)Nc5ccccc5)CC4)cc3F)nc2s1)C1CC1` [Example 20, N-[4-({2-[(cyclopropylcarbonyl)amino][1,3]thiazolo[5,4-b]pyridin-5-yl}oxy)-3-fluorophenyl]-N′-phenylcyclopropane-1,1-dicarboxamide], the inhibition at 1 µM in experiment [1] (setting [8]) is at least 80%; in experiment [2] (setting [9]), at least 70%; in experiment [3] (setting [9]), at least 80%; in experiment [4] (setting [8]), at least 40%; in experiment [5] (setting [8]), at least 90%. Besides, the IC50 (usually the concentration that inhibits the measured activity by half) in experiment [1] (read-out: IC50 value) was at most 1000 nM; in experiment [2], at most 1000 nM; in experiment [3], at most 1000 nM; in experiment [4], at most 2000 nM; in experiment [5] it was at most 1000 nM.
Turning to `Cc1ccc(C(=O)Nc2ccc(Oc3ccc4nc(NC(=O)C5CC5)cn4c3)c(F)c2)c(=O)n1-c1ccc(F)cc1` [Example 90, N-[4-({2-[(cyclopropylcarbonyl)amino]imidazo[1,2-a]pyridin-6-yl}oxy)-3-fluorophenyl]-1-(4-fluorophenyl)-6-methyl-2-oxo-1,2-dihydropyridine-3-carboxamide acetate], the IC50 in experiment [6] and in experiment [7] was at most 1000 nM each time.

Values taken from patent US8445509B2, “Fused heterocyclic derivatives and use thereof” (Takeda Pharmaceutical Company Limited, priority 2008, dated 2013).
